Several values for one entry are separate records, joined by “and”; a condition that tells them apart may be missing. Equal values may be shown once. Read-outs that look alike come from different tables or passages of the source.
Columns and labels:
[1] = test system: AmpC; details: cited from earlier work
[2] = single and repeated doses, i.v. and oral, healthy subjects; cited from earlier work
[3] = test system: E. cloacae B274 (AmpC); assay: Broth microdilution susceptibility assay (MIC), strain S1; type: cell-based; details: CAMHB, 35° C., 24 h; for MIC: Enterobacter cloacae
Method: (§1) Representative inhibitor of beta-lactamases of formula (I) was evaluated against the bacterial strains producing serine-based class A beta-lactamases including CTX-M, TEM-type, SHV-type extended spectrum beta-lactamases (ESBL) and class C betalactamases (AmpC) as noted in Table 2.
(§2) Bacterial suspensions with a turbidity equivalent to that of a 0.5 McFarland standard were prepared by suspending a tiny portion of one colony from blood agar plates in 2 mL of sterile saline. Suspensions were further diluted with cation adjusted Mueller Hinton Broth (CAMHB) to obtain a final inoculum of 5×10^5 CFU/mL.
(§3) The in vitro activities of the antibiotics were determined by the broth microdilution method as recommended by CLSI guidelines.
(§4) MIC experiments were performed in duplicate in 96-well microtiter plates using CAMHB. Serial twofold dilutions of each antibiotic either alone or in combination with constant concentration ratio of LK-176 (2:1) and (10:1) were prepared in CAMHB. The bacterial suspension with final inoculum […] was transferred to the test medium containing the antibacterial substances. In each well of microtiter plate 50 μL of bacterial inoculum and 50 μL of antibiotic dilutions were combined. Each plate included 4 wells with no bacterial inoculum (negative control) and 4 wells with no test compound and no antibiotic (positive control). The plates were incubated at 35° C. for 24 h. Purity check and colony counts on each inoculum suspension was performed to ensure that the final inoculum concentration routinely obtained closely approximates 5×10^5 CFU/mL.

[4] = test system: E. cloacae B275 (AmpC); assay: Broth microdilution susceptibility assay (MIC), strain S2; type: cell-based; details: duplicate, CAMHB, 35° C., 24 h
Method: as §1, §2, §3, §4

[5] = test system: E. cloacae 4013; assay: Broth microdilution susceptibility assay (MIC), strain S3; type: cell-based; details: duplicate, CAMHB, 35° C.; for MIC S3: 24 h; for MIC: Enterobacter cloacae, 4013, 24 h
Method: as §1, §2, §3, §4

[6] = test system: E. caerogenes ATCC 29751 (class II); assay: Broth microdilution susceptibility assay (MIC), strain S4; type: cell-based; details: duplicate, CAMHB, 35° C., 24 h
Method: as §1, §2, §3, §4

[7] = test system: E. faecalis ATCC 29212; assay: Broth microdilution susceptibility assay (MIC), strain S5; type: cell-based; details: duplicate, CAMHB, 35° C.; for MIC S5: 24 h; for MIC: Enterococcus faecalis, ATCC29212, 24 h
Method: as §1, §2, §3, §4

[8] = test system: K. pneumoniae DSA 1461; assay: Broth microdilution susceptibility assay (MIC), strain S6; type: cell-based; details: Table 2 lower part, duplicate, CAMHB, 35° C., 24 h
Method: as §1, §2, §3, §4

[9] = test system: K. pneumoniae ATCC 700603 (SHV-18); assay: Broth microdilution susceptibility assay (MIC), strain S7; type: cell-based; details: CAMHB, 35° C.; for MIC S7: 24 h; for MIC: Klebsiella pneumoniae, ATCC700603, 24 h
Method: as §1, §2, §3, §4

[10] = test system: C. freundii B271 (SHV-5); assay: Broth microdilution susceptibility assay (MIC), strain S8; type: cell-based; details: CAMHB, 35° C., 24 h; for MIC: Citrobacter freundii
Method: as §1, §2, §3, §4

[11] = test system: C. freundii B318 (CTX-M); assay: Broth microdilution susceptibility assay (MIC), strain S9; type: cell-based
Method: as §1, §2, §3, §4

[12] = target: class A beta-lactamase TEM-1 (Escherichia coli, UniProt P62593); assay: IC50 determination with nitrocefin as reporter substrate, TEM-1; type: biochemical, E. coli; details: 30 min pre-incubation at 37° C., phosphate buffer pH 7.0, nitrocefin
Chain of class A beta-lactamase TEM-1 (P62593 24-286 limits assumed): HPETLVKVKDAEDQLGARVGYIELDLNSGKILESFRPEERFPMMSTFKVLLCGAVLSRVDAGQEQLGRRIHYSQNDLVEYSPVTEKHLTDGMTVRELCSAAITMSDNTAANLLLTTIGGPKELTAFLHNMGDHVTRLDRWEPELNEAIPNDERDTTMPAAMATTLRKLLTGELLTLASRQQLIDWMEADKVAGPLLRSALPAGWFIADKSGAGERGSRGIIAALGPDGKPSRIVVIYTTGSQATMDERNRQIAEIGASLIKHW
Method: (§5) The IC50 value represents the concentration of inhibitor required to effect a 50% loss of activity of free enzyme. A standard test for the production of beta-lactamase involves use of the chromogenic cephalosporin, nitrocefin.
(§6) Homogeneously purified class A beta-lactamases TEM-1 and SHV-1 from E. coli and class C enzyme P99 from Enterobacter cloaca were employed in the assay.
(§7) All the enzymes and compounds were dissolved in 50 mM phosphate buffer pH 7.0 and all further dilutions were done with the same buffer solution. Enzyme and compound dilutions were pre-incubated for 30 min at 37° C. and in a final volume of 500 μl. Than 10 μl of 5 mM nitrocefin (reporter substrate) was added to the solution and the absorbance at 482 nm was measured during 2 to 5 minutes. The initial rate was calculated for all the different solutions. The […] values were determined as the inhibitor concentration that gave an initial hydrolysis rate of nitrocefin equal to 50% of the hydrolysis rate of nitrocefin in absence of inhibitor.
(§8) Representative compounds of formula (I) were evaluated as inhibitors of beta-lactamases of TEM-1 and SHV-1 (class A, penicillinase) from E. coli and P-99 (class C, cephalosporinase) from Enterobacter cloacae, by relative IC50 analysis using a procedure similar to that described above.

[13] = target: class A beta-lactamase SHV-1 (Escherichia coli, UniProt P0AD63); assay: IC50 determination with nitrocefin as reporter substrate, SHV-1; type: biochemical, E. coli
Chain of class A beta-lactamase SHV-1 (P0AD63 22-286): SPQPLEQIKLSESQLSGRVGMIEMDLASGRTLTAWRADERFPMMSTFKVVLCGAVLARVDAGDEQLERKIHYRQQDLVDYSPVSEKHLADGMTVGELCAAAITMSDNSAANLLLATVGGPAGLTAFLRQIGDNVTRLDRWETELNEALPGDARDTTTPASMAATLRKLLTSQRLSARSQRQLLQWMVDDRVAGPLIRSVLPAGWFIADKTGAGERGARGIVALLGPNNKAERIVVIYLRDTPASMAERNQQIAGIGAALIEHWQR
Method: as §5, §6, §7, §8

[14] = target: class C beta-lactamase P99 (AmpC) (Enterobacter cloacae, UniProt P05364); assay: IC50 determination with nitrocefin as reporter substrate, P99; type: biochemical
Chain of class C beta-lactamase P99 (AmpC) (P05364 21-381): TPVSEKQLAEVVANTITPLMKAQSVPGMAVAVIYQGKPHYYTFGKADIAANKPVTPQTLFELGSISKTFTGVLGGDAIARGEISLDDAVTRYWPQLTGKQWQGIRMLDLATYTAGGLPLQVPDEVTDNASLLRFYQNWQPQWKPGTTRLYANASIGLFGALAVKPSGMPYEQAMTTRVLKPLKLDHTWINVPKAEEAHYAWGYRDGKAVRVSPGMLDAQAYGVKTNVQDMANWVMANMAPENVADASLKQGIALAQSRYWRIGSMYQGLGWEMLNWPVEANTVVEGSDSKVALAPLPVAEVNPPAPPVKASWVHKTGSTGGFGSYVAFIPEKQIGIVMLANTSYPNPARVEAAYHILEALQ
Method: as §5, §6, §7, §8

[15] = test system: strains S1-S9; assay: Broth microdilution susceptibility assay (MIC), all strains; type: cell-based; details: strains deemed as resistant to LK-176 alone
Method: as §1, §2, §3
as §4, with “The plates were incubated at 35° C. for 24 h. Purity check and colony counts on each inoculum suspension was performed to ensure that the final inoculum concentration routinely obtained closely approximates 5×10^5 CFU/mL.” left out

[16] = Table 2 upper part, duplicate (two lines per substance)
[17] = Table 2 lower part, duplicate, CAMHB, 35° C., 24 h

In the case of `CO[C@H]1CCC[C@H]2C1=C(C(=O)O)N1C(=O)[C@H]([C@@H](C)O)[C@@H]21` [sanfetrinem], the “kcat values of AmpC” value [1] is listed as 0.00033 s⁻¹ and the Safety and tolerability [2] is listed as “good tolerability”.
For `CO/N=C(\C(=O)N[C@@H]1C(=O)N2C(C(=O)O)=C(CSc3nc(=O)c(O)nn3C)CS[C@H]12)c1csc(N)n1` [Ceftriaxone (TRI), ceftriaxone], the “MIC S1” value ([3]; Table 2 lower part, duplicate) was 128 µg/mL, the “MIC S2” value ([4]; Table 2 lower part) was 64 µg/mL and the “MIC S3” value ([5]; Table 2 lower part) was 32 µg/mL. The “MIC S4” value ([6]; Table 2 lower part) was 8 µg/mL, the “MIC S5” value ([7]; Table 2 lower part) was >128 µg/mL and the “MIC S6” value [8] was >128 µg/mL and 128 µg/mL. For the same compound, the “MIC S7” value ([9]; Table 2 lower part, duplicate) was 8 µg/mL and the “MIC S8” value ([10]; Table 2 lower part, duplicate) was 32 µg/mL.
In the case of `C=CC1=C(C(=O)O)N2C(=O)[C@@H](NC(=O)/C(=N\OCC(=O)O)c3csc(N)n3)[C@H]2SC1` [cefixime], the “kcat values of AmpC” value [1] is given as 10 s⁻¹.
With `CO/N=C(\C(=O)N[C@@H]1C(=O)N2C(C(=O)O)=C(COC(C)=O)CS[C@H]12)c1csc(N)n1` [Cefotaxime (OTA), cefotaxime] the “MIC S1” value [3, 16] was 128 µg/mL, the “MIC S2” value ([4]; Table 2 upper part) was 128 µg/mL and the “MIC S3” value ([5]; Table 2 upper part) was 64 µg/mL. For the same compound, the “MIC S4” value ([6]; Table 2 upper part) was 8 µg/mL and the “MIC S5” value ([7]; Table 2 upper part) was 16 µg/mL.
For `CO/N=C(\C(=O)N[C@@H]1C(=O)N2C(C(=O)O)=C(COC(N)=O)CS[C@H]12)c1ccco1` [Cefuroxime (URO), cefuroxime], the “MIC S1” value ([3]; Table 2 lower part, duplicate) was >128 µg/mL, the “MIC S2” value ([4]; Table 2 lower part) was >128 µg/mL and the “MIC S3” value ([5]; Table 2 lower part) was >128 µg/mL. The “MIC S4” value ([6]; Table 2 lower part) was 128 µg/mL, the “MIC S5” value ([7]; Table 2 lower part) was 64 µg/mL and 32 µg/mL and the “MIC S6” value [8] was >128 µg/mL. For the same compound, the “MIC S7” value ([9]; Table 2 lower part, duplicate) was 64 µg/mL and 32 µg/mL, the “MIC S8” value ([10]; Table 2 lower part, duplicate) was 128 µg/mL and the “MIC S9” value [11] was 128 µg/mL.
In the case of `CC(C)(O/N=C(\C(=O)N[C@@H]1C(=O)N2C(C(=O)[O-])=C(C[n+]3ccccc3)CS[C@H]12)c1csc(N)n1)C(=O)O` [Ceftazidime (TAZ), ceftazidime], the “MIC S1” value [3, 16] is reported as >128 µg/mL, the “MIC S2” value ([4]; Table 2 upper part) is reported as >128 µg/mL and the “MIC S3” value ([5]; Table 2 upper part) is reported as 128 µg/mL. The “MIC S4” value ([6]; Table 2 upper part) was 16 µg/mL and the “MIC S5” value ([7]; Table 2 upper part) was 16 µg/mL.
With `CO/N=C(\C(=O)N[C@@H]1C(=O)N2C(C(=O)[O-])=C(C[N+]3(C)CCCC3)CS[C@H]12)c1csc(N)n1` [Cefepime (EPI), cefepime] the “MIC S5” value ([7]; Table 2 upper part) was 32 µg/mL and 16 µg/mL.
In the case of `CCN1CCN(C(=O)N[C@@H](C(=O)N[C@@H]2C(=O)N3[C@@H]2SC(C)(C)[C@@H]3C(=O)O)c2ccccc2)C(=O)C1=O` [Piperacillin (PIP), piperacillin], the “MIC S1” value ([3]; Table 2 lower part, duplicate) is reported as >128 µg/mL, the “MIC S2” value ([4]; Table 2 lower part) is reported as >128 µg/mL and the “MIC S3” value ([5]; Table 2 lower part) is reported as >128 µg/mL. The “MIC S4” value ([6]; Table 2 lower part) was 32 µg/mL, the “MIC S5” value ([7]; Table 2 lower part) was 16 µg/mL and the “MIC S6” value [8] was >128 µg/mL. The “MIC S7” value ([9]; Table 2 lower part, duplicate) was >128 µg/mL, the “MIC S8” value ([10]; Table 2 lower part, duplicate) was >128 µg/mL and the “MIC S9” value [11, 17] was 128 µg/mL.
Work on `CO[C@H]1CCC[C@H]2C1=C(C(=O)O)N1C(=O)C(C(C)O)[C@@H]21` (stereo partly drawn) [LK-176, (4S,8S,9R)-4-methoxy-10-(1-Hydroxyethyl)-11-oxo-1-azatricyclo-[7.2.0.0 (3,8)]undec-2-ene-2-carboxylic acid] yielded an IC50 [12] of 0.015 µM, an IC50 [13] of 0.2 µM and an IC50 [14] of 0.00015 µM. For the same compound, the MIC ([3]; Table 2 lower part, duplicate) was 32 µg/mL, the MIC [3, 16] was 32 µg/mL and the “MIC S1” value ([3]; Table 2 lower part, duplicate) was 16 µg/mL. For the same compound, the MIC ([4]; Enterobacter cloacae, Table 2 lower part) was 64 µg/mL, the MIC ([5]; Table 2 lower part) was 64 µg/mL and the MIC ([5]; Table 2 upper part) was 64 µg/mL. The “MIC S3” value ([5]; Table 2 lower part) was 32 µg/mL, the MIC ([6]; Table 2 lower part) was 16 µg/mL and the MIC ([6]; Table 2 upper part) was 32 µg/mL. For the same compound, the MIC ([7]; Table 2 lower part) was 64 µg/mL, the MIC ([7]; Table 2 upper part) was 32 µg/mL and the MIC ([8]; Klebsiella pneumoniae, DSA1461) was 16 µg/mL. The MIC ([9]; Table 2 lower part, duplicate) was > 128 µg/mL, the MIC ([9]; Table 2 upper part, column 6, duplicate) was 16 µg/mL and the “MIC S7” value ([9]; Table 2 lower part, duplicate) was 128 µg/mL. For the same compound, the MIC ([10]; Table 2 lower part, duplicate) was 64 µg/mL, the MIC ([10]; Table 2 upper part, column 7, duplicate) was 128 µg/mL and the “MIC S9” value [11, 17] was 32 µg/mL. The “MIC values of LK-176 alone, all strains S1-S9” value [15] was “above 16 mg/L”.

From patent publication US20110172200A1, “USE OF INHIBITOR OF BETA-LACTAMASES AND ITS COMBINATION WITH BETA-LACTAM ANTIBIOTICS” (priority 2008, published 2011)
